Results published in patent US20260217701A1, “SELECTIVE BET INHIBITORS AND USES THEREOF” (Tay Therapeutics Limited, priority 2022, published 2026).
Where “and” joins values, the source holds several entries; their conditions need not be identical. Equal values may be shown once.

Assay: Rat PK study #3 (ABBV-744 IV 1 mg/kg and PO 5 mg/kg)
Type: in vivo, SD rats
Set-up: Tmax: unit: h
Details: for concentration at 0.033 h: male, Sprague-Dawley, rat, plasma, iv
Method: For the third rat pharmacokinetic study, the pharmacokinetics of ABBV-744 were assessed in male SD rats for comparison to Compound A. ABBV-744 was prepared in a formulation of 5% DMSO, 40% PEG-400, and 55% Milli-Q water (see Table 2D for formulation) and delivered to animals orally (PO) at a dose of 5 mg/kg, or intravenously (IV) at a dose of 1 mg/kg. Animals in each group (n=3) were then monitored over a 24-hour period.
Blood samples (~0.2 mL) were collected according to a schedule (IV administration: 0.033, 0.083, 0.25, 0.5, 1, 2, 4, and 8 h following the initial dosing; PO administration: 0.083, 0.25, 0.5, 1, 2, 4, 8, and 24 h following the initial dosing) by jugular vein by cannulation except for the dosing vein (for IV group), and EDTA-K2 was used as anticoagulant. Within 30 minutes of collection, the samples were centrifuged at approximately 4000 times g-force for 5 minutes at 4° C. to obtain blood plasma. The plasma samples were immediately divided into two aliquots (~75 µL each), transferred to a cryogenic vial, and stored in a freezer at −75±15° C. prior to analysis.
The concentration of ABBV-744 in plasma samples was determined by liquid chromatography-mass spectrometry (LC-MS/MS) using a Shimadzu HPLC(DGU-405; LC-40D XS CN; SIL-40C XSCN; Plate Changer CN; CTO-40C CN; and CBM-40 CN) and an AB API 5500+LC/MS/MS instrument. Samples were analyzed on an Agilent Poroshell Bonus RP 2.7 μm (50×2.1 mm) column. Solution A in the mobile phase was 95% water (0.1% formic acid) and solution B was 95% acetonitrile in water (0.1% formic acid), injection volume was 6 μL, and flow rate was 0.6 mL/min.
To prepare samples for analysis, serial concentrations were prepared by diluting the stock solution of analyte with a 50% acetonitrile in water solution. 5 μL working solutions (5, 10, 20, 50, 100, 500, 1000, 5000, and 10000 ng/mL) were added to 50 μL of the blank SD rat plasma to achieve calibration standards of ~0.5 to 1000 ng/ml (0.5, 1, 2, 5, 10, 50, 100, 500, and 1000 ng/ml) in a total volume of 55 μL. Five quality control samples at 1 ng/ml, 2 ng/ml, 5 ng/ml, 50 ng/mL, and 800 ng/ml for plasma were prepared independently of those used for the calibration curves. These QC samples were prepared on the day of analysis in the same way as calibration standards.
55 μL of standards, 55 μL of QC samples and 55 μL of unknown samples (50 μL of unknown rat plasma with 5 µL of blank solution) were added to 200 µL of acetonitrile containing IS mixture (verapamil) for precipitating protein respectively. The samples were then vortexed for 30 s. After centrifugation at 4° C., 3900 rpm for 15 min, the supernatant was diluted 3 times with water. 6 μL of diluted supernatant was injected into the LC/MS/MS system for quantitative analysis.

[1] = SD rats, IV 1 mg/kg, DMSO/PEG-400/Milli-Q water formulation, individual animals, 1 mg/kg
[2] = SD rats, IV 1 mg/kg, DMSO/PEG-400/Milli-Q water formulation, mean of 3 animals
[3] = SD rats, PO 5 mg/kg, DMSO/PEG-400/Milli-Q water formulation, individual animals, 5 mg/kg

CCNC(=O)c1cc2c(-c3cc(C(C)(C)O)ccc3Oc3c(C)cc(F)cc3C)cn(C)c(=O)c2[nH]1 [ABBV-744]
exposure above the free EC50 BD2 BRD4 (5 mg/kg dose): minimal | Clinical observations (IV 1 mg/kg and PO 5 mg/kg): No clinical observations were noted | Plasma Concentration (SD rats, IV 1 mg/kg, DMSO/PEG-400/Milli-Q water formulation, 0.033 h, individual animals, 1 mg/kg): 484 ng/mL and 489 ng/mL | Plasma Concentration (SD rats, IV 1 mg/kg, DMSO/PEG-400/Milli-Q water formulation, 0.083 h, individual animals, 1 mg/kg): 308 ng/mL and 353 ng/mL | Plasma Concentration (SD rats, IV 1 mg/kg, DMSO/PEG-400/Milli-Q water formulation, 0.25 h, individual animals, 1 mg/kg): 267 ng/mL and 289 ng/mL | Plasma Concentration (SD rats, IV 1 mg/kg, DMSO/PEG-400/Milli-Q water formulation, 0.5 h, individual animals, 1 mg/kg): 217 ng/mL and 202 ng/mL | Plasma Concentration (SD rats, IV 1 mg/kg, DMSO/PEG-400/Milli-Q water formulation, 1 h, individual animals, 1 mg/kg): 147 ng/mL and 158 ng/mL | Plasma Concentration (SD rats, IV 1 mg/kg, DMSO/PEG-400/Milli-Q water formulation, 2 h, individual animals, 1 mg/kg): 116 ng/mL and 110 ng/mL | Plasma Concentration (SD rats, IV 1 mg/kg, DMSO/PEG-400/Milli-Q water formulation, 4 h, individual animals, 1 mg/kg): 55.9 ng/mL and 54.8 ng/mL | Plasma Concentration (SD rats, IV 1 mg/kg, DMSO/PEG-400/Milli-Q water formulation, 8 h, individual animals, 1 mg/kg): 18.3 ng/mL and 15.0 ng/mL | AUCInf [1]: 750 ng·h/mL and 728 ng·h/mL | AUC_%Extrap_obs [1]: 5.41% and 8.03% and 6.23% | AUClast [1]: 690 ng·h/mL and 683 ng·h/mL | C0 [1]: 652 ng/mL and 606 ng/mL | Cl_obs [1]: 24.9 mL/min/kg and 22.2 mL/min/kg and 22.9 mL/min/kg | MRTInf_obs [1]: 2.88 h and 2.61 h | T1/2 [1]: 2.28 h and 2.09 h | Vss_obs [1]: 3.69 L/kg and 3.84 L/kg and 3.59 L/kg | AUC_%Extrap_obs [2]: 6.56% | Cl_obs [2]: 23.3 mL/min/kg | Vss_obs [2]: 3.71 L/kg | Plasma Concentration (SD rats, PO 5 mg/kg, DMSO/PEG-400/Milli-Q water formulation, 0.083 h, individual animals, 5 mg/kg): 0.00 ng/mL and 1.03 ng/mL and 3.81 ng/mL | Plasma Concentration (SD rats, PO 5 mg/kg, DMSO/PEG-400/Milli-Q water formulation, 0.25 h, individual animals, 5 mg/kg): 2.95 ng/mL and 6.42 ng/mL and 48.5 ng/mL | Plasma Concentration (SD rats, PO 5 mg/kg, DMSO/PEG-400/Milli-Q water formulation, 0.5 h, individual animals, 5 mg/kg): 7.91 ng/mL and 21.1 ng/mL and 100 ng/mL | Plasma Concentration (SD rats, PO 5 mg/kg, DMSO/PEG-400/Milli-Q water formulation, 1 h, individual animals, 5 mg/kg): 16.7 ng/mL and 41.0 ng/mL and 118 ng/mL | Plasma Concentration (SD rats, PO 5 mg/kg, DMSO/PEG-400/Milli-Q water formulation, 2 h, individual animals, 5 mg/kg): 31.9 ng/mL and 78.0 ng/mL and 157 ng/mL | Plasma Concentration (SD rats, PO 5 mg/kg, DMSO/PEG-400/Milli-Q water formulation, 4 h, individual animals, 5 mg/kg): 40.6 ng/mL and 101 ng/mL and 239 ng/mL | Plasma Concentration (SD rats, PO 5 mg/kg, DMSO/PEG-400/Milli-Q water formulation, 8 h, individual animals, 5 mg/kg): 54.6 ng/mL and 70.6 ng/mL and 214 ng/mL | Plasma Concentration (SD rats, PO 5 mg/kg, DMSO/PEG-400/Milli-Q water formulation, 24 h, individual animals, 5 mg/kg): 0.909 ng/mL and 1.09 ng/mL and 4.52 ng/mL | AUClast [3]: 739 ng·h/mL and 1175 ng·h/mL and 3265 ng·h/mL | Cmax [3]: 54.6 ng/mL and 101 ng/mL and 239 ng/mL | F [3]: 22.1% and 35.2% and 97.7% | Tmax [3]: 4.00 h | F (SD rats, PO 5 mg/kg, DMSO/PEG-400/Milli-Q water formulation, mean of 3 animals): 51.7% | concentration at 0.033 h (1 mg/kg, SD rats, IV 1 mg/kg, DMSO/PEG-400/Milli-Q water formulation, 0.033 h, individual animals): 475 ng/mL | concentration at 0.033 h (1 mg/kg, SD rats, IV 1 mg/kg, DMSO/PEG-400/Milli-Q water formulation, 0.033 h, mean of 3 animals): 483 ng/mL
